Laboratory results published in patent US6924276B2, “Diacid-substituted heteroaryl derivatives as matrix metalloproteinase inhibitors” (Warner-Lambert Company, priority 2001, dated 2005).

Key:
[1] = biological target: MMP-13CD (catalytic domain of collagenase-3) (Homo sapiens, UniProt P45452); assay: thiopeptolide substrate hydrolysis assay, MMP-13CD; format: biochemical
Source text: (§1) The invention compounds of Formula I have been evaluated in standard assays for their ability to inhibit the activity of various MMP enzymes. The assays used to evaluate the biological activity of the invention compounds are well known and routinely used by those skilled in the study of MMP inhibitors and their use to treat clinical conditions.
(§2) Such assays are described in detail by Ye et al., in Biochemistry, 1992;31(45):11231-11235, which is incorporated herein by reference.
(§3) Thiopeptolide substrates show virtually no decomposition or hydrolysis in the absence of a matrix metalloproteinase enzyme. A typical thiopeptolide substrate commonly utilized for assays is Ac-Pro-Leu-Gly-thioester;-Leu-Leu-Gly-OEt. A 100 μL assay mixture will contain 50 mM of 2-morpholinoethane sulfonic acid monohydrate (MES, pH 6.0) 10 mM CaCl2, 100 μM thiopeptolide substrate, and 1 mM 5,5′-dithio-bis-(2-nitro-benzoic acid) (DTNB). The thiopeptolide substrate concentration is varied from 10 to 800 μM to obtain Km and Kcat values. The change in absorbance at 405 nm is monitored on a Thermo Max microplate reader (Molecular Devices, Menlo Park, Calif.) at room temperature (22° C.). The calculation of the amount of hydrolysis of the thiopeptolide substrate is based on E412=13600 m^−1 cm^−1 for the DTNB-derived product 3-carboxy-4-nitrothiophenoxide. Assays are carried out with and without matrix metalloproteinase inhibitor compounds, and the amount of hydrolysis is compared for a determination of inhibitory activity of the test compounds.
Several representative compounds have been evaluated for their ability to inhibit various matrix metalloproteinase enzymes. The invention compounds are uniquely active in inhibiting MMP-13. Table 1 below presents inhibitory activity for invention compounds in the column labelled “MMP-13CD IC50, μM”. In the table, MMP-13CD refers to the catalytic domain of collagenase-3. It has been shown previously (Ye Qi-Zhuang, Hupe D., Johnson L., Current Medicinal Chemistry, 1996;3:407-418) that inhibitor activity against a catalytic domain of an MMP is predictive of the inhibitor activity against the respective full-length enzyme. Test compounds were evaluated at various concentrations in order to determine their respective IC50 values, the micromolar concentration of compound required to cause a 50% inhibition of the hydrolytic activity of the respective enzyme.

[2] = biological target: T1, MMP-9CD (Homo sapiens, UniProt P14780); assay: thiopeptolide substrate hydrolysis assay, MMP-9CD; format: biochemical; details: Table 2, catalytic domain
T1 construct: "MMP-9CD"
T1 sequence (P14780 with tags, fused parts or gaps DEL216-390 limits assumed): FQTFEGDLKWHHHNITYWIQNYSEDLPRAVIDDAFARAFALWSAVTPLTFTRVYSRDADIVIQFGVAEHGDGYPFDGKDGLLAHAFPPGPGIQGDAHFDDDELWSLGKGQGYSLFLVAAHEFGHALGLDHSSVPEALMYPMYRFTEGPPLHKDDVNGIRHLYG
Source text: as §1, §2, §3
(§4) The invention compounds are also selective inhibitors of MMP-13 versus other MMP enzymes, including versus MMP-7 and MMP-9. This is shown by comparing the IC50 data presented below in Table 2 in the columns labeled “MMP-7 IC50 (μM),” “MMP-9CD IC50 (μM),” and “MMP-13CD IC50 (μM),” respectively.

[3] = biological target: T2, MMP-7 (Homo sapiens, UniProt P09237); assay: thiopeptolide substrate hydrolysis assay, MMP-7; format: biochemical; details: Table 2
T2 sequence (P09237 95-267): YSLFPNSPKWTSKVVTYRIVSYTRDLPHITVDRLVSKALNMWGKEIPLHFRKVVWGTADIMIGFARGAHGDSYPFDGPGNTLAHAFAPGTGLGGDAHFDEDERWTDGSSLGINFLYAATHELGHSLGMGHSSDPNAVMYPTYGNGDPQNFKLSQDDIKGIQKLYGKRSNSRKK
Source text: as §1, §2, §3, §4

Structure (SMILES) | IC50 ([1]; Table 1) [µM] | melting point [°C] | IC50 [2] [µM] | IC50 [3] [µM] | IC50 ([1]; Table 2) [µM]
Cn1cc(C(=O)NCc2ccc3c(c2)OCO3)cc1C(=O)NCc1ccc2c(c1)OCO2 [Example 8, 1-Methyl-1H-pyrrole-2,4-dicarboxylic Acid bis-[(1,3-benzodioxol-5-ylmethyl)-amide]] | 3 | 147 to 152 |  |  | 
O=C(NCc1ccccc1)Nc1nnc(C(=O)OCc2ccccc2)s1 [Example 23, 5-(3-Benzyl-ureido)-1,3,4-thiadiazole-2-carboxylic Acid Benzyl Ester] | 30 | 188 to 192 |  |  | 
Cc1sc(C(=O)NCc2ccc3c(c2)OCO3)cc1NC(=O)Cc1ccccc1 [Example 12, 5-Methyl-4-phenylacetylamino-thiophene-2-carboxylic Acid (1,3-benzodioxol-5-ylmethyl)-amide] | 2.7 | 138 to 140 |  |  | 
Cc1sc(C(=O)OCc2ccccc2)cc1NC(=O)Cc1ccccc1 [Example 9, 5-Methyl-4-phenylacetylamino-thiophene-2-carboxylic Acid Benzyl Ester] | 2.3 | 173 to 174 |  |  | 
COC(=O)c1cc(NC(=O)NCc2ccccc2)c(C)s1 [Example 16, 5-Methyl-4-(3-benzyl-ureido)-thiophene-2-carboxylic Acid Methyl Ester] | 2 | 185 to 187 |  |  | 
O=C(NCc1ccc2c(c1)OCO2)c1ccc(C(=O)NCc2ccc3c(c2)OCO3)s1 [Example 2, Thiophene-2,5-dicarboxylic Acid bis-[(1,3-benzodioxol-5-ylmethyl)-amide]] | 0.85 | 207 to 209 | 30 | 30 | 
COc1cc(C(=O)NCc2ccccc2)sc1C(=O)NCc1ccccc1 [Example 22, 3-Methoxy-thiophene-2,5-dicarboxylic Acid Bis Benzylamide] | ≥ 100 |  |  |  | 
O=C(OCc1ccc2c(c1)OCO2)c1ccc(C(=O)OCc2ccc3c(c2)OCO3)s1 [Example 1, Thiophene-2,5-dicarboxylic Acid di-1,3-benzodioxol-5-ylmethyl Ester] | 8.6 | 141 to 148 |  |  | 
Cc1sc(C(=O)OCc2ccccc2)cc1NC(=O)NCc1ccccc1 [Example 13, 4-(3-Benzyl-ureido)-5-methyl-thiophene-2-carboxylic Acid Benzyl Ester] | 22 | 208 to 209 | 30 | 30 | 
Cc1sc(C(=O)OCc2ccc3c(c2)OCO3)cc1NC(=O)NCc1ccccc1 [Example 15a, 4-(3-Benzyl-ureido)-5-methyl-thiophene-2-carboxylic Acid 1,3-benzodioxol-5-ylmethyl Ester] |  | 216 to 217 |  |  | 0.35
Cc1sc(C(=O)NCc2ccccc2)cc1NC(=O)Cc1ccccc1 [Example 10, 5-Methyl-4-phenylacetylamino-thiophene-2-carboxylic Acid Benzylamide] | 30 |  | 30 |  | 
O=C(OCc1ccc2c(c1)OCO2)c1csc(C(=O)OCc2ccc3c(c2)OCO3)c1 [Example 5, Thiophene-2,4-dicarboxylic Acid di-1,3-benzodioxol-5-ylmethyl Ester] | 0.45 | 164 to 165 | 30 | 10 | 
Cc1sc(C(=O)NCc2ccccc2)cc1NC(=O)NCc1ccccc1 [Example 14, 4-(3-Benzyl-ureido)-5-methyl-thiophene-2-carboxylic Acid Benzylamide] | 14 |  | 99 |  | 
Cc1sc(C(=O)NCc2ccc3c(c2)OCO3)cc1NC(=O)NCc1ccccc1 [Example 15b, 4-(3-Benzyl-ureido)-5-methyl-thiophene-2-carboxylic Acid (1,3-benzodioxol-5-ylmethyl)-amide] | 0.92 | 194 to 195 | 30 | 45 | 
COc1cc(C(=O)NCc2ccc3c(c2)OCO3)sc1C(=O)NCc1ccc2c(c1)OCO2 [Example 4, 3-Methoxy-thiophene-2,5-dicarboxylic Acid bis-[(1,3-benzodioxol-5-ylmethyl)-amide]] | 0.2 | 191 to 195 |  | 30 | 
CNc1sc(C(=O)NCc2ccc(OC)cc2)cc1C(=O)NCc1ccc(C(=O)O)c(C)c1 [Example 21, 4-({[5-(4-Methoxy-benzylcarbamoyl)-2-methylamino-thiophene-3-carbonyl]-amino}-methyl)-2-methyl-benzoic Acid] | 3.4 |  |  |  | 
COc1cc(C(=O)OCc2ccc3c(c2)OCO3)sc1C(=O)OCc1ccc2c(c1)OCO2 [Example 3, 3-Methoxy-thiophene-2,5-dicarboxylic Acid di-1,3-benzodioxol-5-ylmethyl Ester] | 3.6 | 153 to 155 |  |  | 
Cn1cc(C(=O)OCc2ccc3c(c2)OCO3)cc1C(=O)OCc1ccc2c(c1)OCO2 [Example 7, 1-Methyl-1H-pyrrole-2,4-dicarboxylic Acid di-1,3-benzodioxol-5-ylmethyl Ester] | 0.97 | 103 to 110 |  |  | 
O=C(NCc1ccc2c(c1)OCO2)c1csc(C(=O)NCc2ccc3c(c2)OCO3)c1 [Example 6, Thiophene-2,4-dicarboxylic Acid bis-[(1,3-benzodioxol-5-ylmethyl)-amide]] | 0.37 | 174 to 175 |  | 32 | 
Cc1sc(C(=O)OCc2ccc3c(c2)OCO3)cc1NC(=O)Cc1ccccc1 [Example 11, 5-Methyl-4-phenylacetylamino-thiophene-2-carboxylic Acid 1,3-benzodioxol-5-ylmethyl Ester] | 0.19 |  |  |  | 
